Data on 20 compounds can be found in patent US20150175599A1, “FAAH Inhibitors” (Ironwood Pharmaceuticals, Inc., priority 2010, published 2015).

The target in one data set is T1, FAAH (Homo sapiens, UniProt O00519).
T1 construct: Reactions were initiated by adding 12.5 μg of brain microsome; tissue ABS, Inc; host or cells: human brain cerebral cortex, membrane/microsome fraction pooled from 3 donors
T1 sequence (O00519 1-579): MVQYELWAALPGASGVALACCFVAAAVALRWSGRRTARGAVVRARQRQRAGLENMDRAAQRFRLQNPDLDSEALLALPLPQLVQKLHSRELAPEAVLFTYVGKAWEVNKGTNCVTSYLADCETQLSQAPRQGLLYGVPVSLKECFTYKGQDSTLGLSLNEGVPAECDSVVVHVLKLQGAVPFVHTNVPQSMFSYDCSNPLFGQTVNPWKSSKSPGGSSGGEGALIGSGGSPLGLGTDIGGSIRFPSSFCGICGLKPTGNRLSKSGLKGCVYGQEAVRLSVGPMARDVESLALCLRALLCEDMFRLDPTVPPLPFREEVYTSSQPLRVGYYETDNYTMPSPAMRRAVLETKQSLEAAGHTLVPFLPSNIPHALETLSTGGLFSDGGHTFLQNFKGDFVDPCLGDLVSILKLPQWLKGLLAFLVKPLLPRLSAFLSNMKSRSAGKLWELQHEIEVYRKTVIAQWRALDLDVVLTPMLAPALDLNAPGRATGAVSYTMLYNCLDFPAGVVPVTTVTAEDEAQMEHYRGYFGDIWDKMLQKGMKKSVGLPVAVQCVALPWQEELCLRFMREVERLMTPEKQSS
Nature of the data set: FAAH inhibition, human brain membrane homogenate assay. The following applies: human brain homogenate; average activity; read-out: Human brain Extract FAAH IC50. Type of data set: biochemical.

The next data set has as its target T2, hERG channel (Homo sapiens, UniProt Q12809).
T2 construct: expressed in transfected cells; host or cells: CHO (hERG-CHO), under Geneticin selection
The data set can be described thus: hERG channel inhibition, automated patch clamp (IonWorks HT, hERG-CHO). Type of data set: cell-based. The following applies: CHO cells expressing hERG, 600 s incubation; for inhibition at 600 s, 1 µM: 1 μM compound, read-out: hERG Channel Inhibition % (at 1 μM), vehicle-subtracted values; for inhibition at 600 s, 10 µM: 10 μM compound, read-out: hERG Channel Inhibition % (at 10 μM), vehicle-subtracted values. How it is done: Human ether-a-gogo-related (hERG) ion channel encodes the inward rectifying voltage gated potassium channel in the heart and has a major role during the repolarization of the cardiac action potential. It is well established that blockade of this ion channel can lead to potentially lethal arrhythmias. hERG pre-clinical safety data is often used by regulatory agencies in elucidate the toxicity profile of certain compositions. The disclosed compounds of Table 1 were tested for their ability to inhibit hERG ion channels.
Media components include F12 Nutrient Mixture (Ham) with GlutaMAX™ (Invitrogen, Cat#31765), Fetal Bovine Serum, Certified (Invitrogen, Cat#16000-044—not heat activated), and Geneticin® Selective Antibiotic (Invitrogen, Cat#10131-027).
One vial of frozen cells, at 1.62×10^6 cells are thawed into a T150 flask (BD Falcon 355001) with 40 mL of pre-warmed complete media. Cells are cultured at 37° C., 5% CO2 for four hours prior to gently changing media. 99% of cells appear attached at this time point.
The flask is media changed at 24 hours post-thaw, the cells are imaged, media changed, and returned to the incubator. At this point, the cells appear healthy and about 25% confluent in the flask. Cells are typically passed 24-48 hours after thaw according to the following intervals and densities below. Cells are incubated at 30° C. for 48 hours prior to assay.
Using an automated patch clamp apparatus (IonWorks^HT), a three pulse protocol was applied by stepping from a holding potential of −80 mV to […] for 2 s, to activate hERG channels. The membrane voltage was then stepped back to −50 mV for 2 s to evoke a tail current prior to returning to the holding potential for 1 s. This sequence was repeated a further two times. This voltage protocol was applied prior to drug (Pre compound) and after 600 s in the presence of drug (Post compound).
The amplitude of the hERG tail current was calculated by measuring the difference between the maximum current on stepping to −50 mV of the third pulse (i.e. peak of the outward hERG tail current) and the current measured immediately prior to activation of any hERG current. This parameter was assessed before (pre tail current amplitude) and after 600 s incubation (post tail current amplitude) in drug. In order to assess the amount of block produced by test compounds, the data was first filtered using the IonWorks™ software to exclude any cells where the seal resistance was less than 50 MOhm. The remaining data was then exported to an excel compatible data file and only currents with tail currents greater than 250 pA were analyzed. The post/pre tail current amplitude ratio for the third pulse was calculated for each drug and control, and presented as percent inhibition.
On the technique in general: The hERG channel carries a current that helps repolarise heart muscle cells.

In general, IC50 refers to the point on the concentration scale where inhibition reaches its midpoint. Usually inhibition stands for how much of the control response was suppressed.

T2 sequence (Q12809 whole entry): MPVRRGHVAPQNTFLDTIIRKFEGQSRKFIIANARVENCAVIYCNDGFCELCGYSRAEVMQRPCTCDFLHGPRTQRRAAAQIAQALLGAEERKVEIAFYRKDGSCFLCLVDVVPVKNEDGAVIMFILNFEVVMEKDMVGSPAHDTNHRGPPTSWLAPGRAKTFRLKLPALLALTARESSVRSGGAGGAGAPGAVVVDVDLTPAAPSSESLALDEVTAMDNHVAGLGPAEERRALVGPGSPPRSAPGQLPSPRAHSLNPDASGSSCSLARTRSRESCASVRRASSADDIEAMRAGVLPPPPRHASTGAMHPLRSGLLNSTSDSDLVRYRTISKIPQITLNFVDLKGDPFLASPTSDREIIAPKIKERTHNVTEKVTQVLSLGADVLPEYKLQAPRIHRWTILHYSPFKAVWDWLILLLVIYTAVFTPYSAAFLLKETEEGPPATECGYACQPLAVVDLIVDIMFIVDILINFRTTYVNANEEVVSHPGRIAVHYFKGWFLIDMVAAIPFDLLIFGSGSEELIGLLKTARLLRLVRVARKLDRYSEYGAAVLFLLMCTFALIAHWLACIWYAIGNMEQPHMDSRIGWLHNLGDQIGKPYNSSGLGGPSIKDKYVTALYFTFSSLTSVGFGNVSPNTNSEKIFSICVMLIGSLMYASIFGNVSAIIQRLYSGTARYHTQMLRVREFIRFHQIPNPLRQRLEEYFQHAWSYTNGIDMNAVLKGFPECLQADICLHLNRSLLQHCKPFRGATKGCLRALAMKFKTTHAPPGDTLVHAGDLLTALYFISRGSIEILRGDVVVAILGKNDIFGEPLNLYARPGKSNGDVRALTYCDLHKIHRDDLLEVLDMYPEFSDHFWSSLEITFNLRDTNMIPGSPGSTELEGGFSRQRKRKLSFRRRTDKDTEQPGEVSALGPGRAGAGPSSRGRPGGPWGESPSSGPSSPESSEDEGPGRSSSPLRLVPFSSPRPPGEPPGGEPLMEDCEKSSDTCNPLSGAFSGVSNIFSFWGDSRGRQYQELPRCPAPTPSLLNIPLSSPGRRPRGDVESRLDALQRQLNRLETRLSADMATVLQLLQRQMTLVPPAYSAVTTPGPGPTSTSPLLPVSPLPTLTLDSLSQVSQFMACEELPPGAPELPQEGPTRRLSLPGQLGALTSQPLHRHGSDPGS

Consider `COc1cc(NC(=O)C(=O)c2c(C)n(Cc3ccc(Cl)cc3)c3ccc(CN(C)C)cc23)ccn1` [Compound 26, 2-(1-(4-chlorobenzyl)-5-((dimethylamino)methyl)-2-methyl-1H-indol-3-yl)-N-(2-methoxypyridin-4-yl)-2-oxoacetamide], for which, on FAAH, the IC50 lay within 100 to 1000 nM. For the compound `COc1ccc2c(c1)c(C(=O)C(=O)Nc1ccnc(O)c1)c(C)n2Cc1ccc(Cl)cc1` [Compound 50, 2-(1-(4-chlorobenzyl)-5-methoxy-2-methyl-1H-indol-3-yl)-N-(2-hydroxypyridin-4-yl)-2-oxoacetamide], the IC50 at FAAH was in the range of 1000 to 10000 nM.

In the case of `COc1cc(NC(=O)C(=O)c2c(C)n(Cc3ccc(Cl)cc3)c3ccc(N(C)C(=O)OC(C)(C)C)cc23)ccn1` [Compound 7, Tert-butyl(1-(4-chlorobenzyl)-3-(2-((2-methoxypyridin-4-yl)amino)-2-oxoacetyl)-2-methyl-1H-indol-5-yl)(methyl)carbamate], on hERG channel, the inhibition at 600 s, 1 µM was below 25% and the inhibition at 600 s, 10 µM is below 25%. For the same compound, the IC50 on FAAH was 100 to 1000 nM. In the case of `COc1ccc2c(c1)c(C(=O)C(=O)Nc1ccnc(OC)c1)c(C)n2Cc1ncc(Cl)cc1OC` [Compound 100, 2-(1-((5-chloro-3-methoxypyridin-2-yl)methyl)-5-methoxy-2-methyl-1H-indol-3-yl)-N-(2-methoxypyridin-4-yl)-2-oxoacetamide], at hERG channel, the inhibition at 600 s, 1 µM was below 25% and the inhibition at 600 s, 10 µM was below 25%. Moreover, the IC50 on FAAH fell in the range of 100 to 1000 nM. `C=Cc1ccc2c(c1)c(C(=O)C(=O)Nc1ccnc(OC)c1)c(C)n2Cc1ccc(Cl)cc1` [Compound 27, 2-(1-(4-chlorobenzyl)-2-methyl-5-vinyl-1H-indol-3-yl)-N-(2-methoxypyridin-4-yl)-2-oxoacetamide]: the IC50 on FAAH is below 100 nM. The same measure, in the same setting: as for `COc1cc(NC(=O)C(=O)c2c(C)n(Cc3ccc(Cl)cn3)c3cc(C)c(OC)cc23)ccn1` [Compound 95, 2-(1-((5-chloropyridin-2-yl)methyl)-5-methoxy-2,6-dimethyl-1H-indol-3-yl)-N-(2-methoxypyridin-4-yl)-2-oxoacetamide], the figure is below 100 nM. With `COc1ccc2c(c1)c(C(=O)C(=O)Nc1ccnc(OC)c1)c(C)n2Cc1ccncc1` [Compound 16, 2-(5-methoxy-2-methyl-1-(pyridin-4-ylmethyl)-1H-indol-3-yl)-N-(2-methoxypyridin-4-yl)-2-oxoacetamide], at hERG channel, the inhibition at 600 s, 1 µM was below 25% and the inhibition at 600 s, 10 µM was below 25%. For the same compound, the IC50 at FAAH fell in the range of 100 to 1000 nM. On to `COc1ccc2c(c1)c(C(=O)C(=O)Nc1ccnc(OC)c1F)c(C)n2Cc1ccc(Cl)cc1` [Compound 53, 2-(1-(4-chlorobenzyl)-5-methoxy-2-methyl-1H-indol-3-yl)-N-(3-fluoro-2-methoxypyridin-4-yl)-2-oxoacetamide], for which, on hERG channel, the inhibition at 600 s, 1 µM is below 25% and the inhibition at 600 s, 10 µM was below 25%. The IC50 at FAAH fell in the range of 100 to 1000 nM.

With `COc1cc(NC(=O)C(=O)c2c(C)n(Cc3ccc(Cl)cc3)c3ccc(OC)c(OC)c23)ccn1` [Compound 56, 2-(1-(4-chlorobenzyl)-4,5-dimethoxy-2-methyl-1H-indol-3-yl)-N-(2-methoxypyridin-4-yl)-2-oxoacetamide], the IC50 on FAAH was in the range of 100 to 1000 nM.

On to `COc1ccc(Cn2c(C)c(C(=O)C(=O)Nc3ccnc(OC)c3)c3cc(OC)cnc32)nc1` [Compound 40, 2-(5-methoxy-1-((5-methoxypyridin-2-yl)methyl)-2-methyl-1H-pyrrolo[2,3-b]pyridin-3-yl)-N-(2-methoxypyridin-4-yl)-2-oxoacetamide], for which, on hERG channel, the inhibition at 600 s, 1 µM is below 25% and the inhibition at 600 s, 10 µM is below 25%. In addition, at FAAH, the IC50 is below 100 nM. With `COc1cc(NC(=O)C(=O)c2c(C)n(Cc3ccc(Cl)cc3)c3cnccc23)ccn1` [Compound 35, 2-(1-(4-chlorobenzyl)-2-methyl-1H-pyrrolo[2,3-c]pyridin-3-yl)-N-(2-methoxypyridin-4-yl)-2-oxoacetamide], on FAAH, the IC50 is 100 to 1000 nM. Still for that read-out and setting: next, `COc1cc(NC(=O)C(=O)c2c(C)n(Cc3ccc(Cl)cn3)c3ccc([N+](=O)[O-])cc23)ccn1` [Compound 62, 2-(1-((5-chloropyridin-2-yl)methyl)-2-methyl-5-nitro-1H-indol-3-yl)-N-(2-methoxypyridin-4-yl)-2-oxoacetamide]: below 100 nM. As to `COc1cc(NC(=O)C(=O)c2c(C)n(Cc3ccc(Cl)cc3)c3c(OC)cccc23)ccn1` [Compound 51, 2-(1-(4-chlorobenzyl)-7-methoxy-2-methyl-1H-indol-3-yl)-N-(2-methoxypyridin-4-yl)-2-oxoacetamide], at hERG channel, the inhibition at 600 s, 1 µM is below 25% and the inhibition at 600 s, 10 µM is below 25%. In addition, the IC50 on FAAH lay in the range of 100 to 1000 nM. `CCN(CC)c1ccc2c(c1)c(C(=O)C(=O)Nc1ccnc(OC)c1)c(C)n2Cc1ccc(Cl)cc1` [Compound 24, 2-(1-(4-chlorobenzyl)-5-(diethylamino)-2-methyl-1H-indol-3-yl)-N-(2-methoxypyridin-4-yl)-2-oxoacetamide]: on FAAH, the IC50 was 1000 to 10000 nM.

Consider `COc1ccc2c(c1)c(C(=O)C(=O)Nc1ccnc(OC)c1Cl)c(C)n2Cc1ccc(Cl)cc1` [Compound 52, N-(3-chloro-2-methoxypyridin-4-yl)-2-(1-(4-chlorobenzyl)-5-methoxy-2-methyl-1H-indol-3-yl)-2-oxoacetamide], for which, on hERG channel, the inhibition at 600 s, 1 µM was below 25% and the inhibition at 600 s, 10 µM was below 25%. In addition, at FAAH, the IC50 was above 10000 nM. Consider `COc1cc(NC(=O)C(=O)c2c(C)n(Cc3ccc(Cl)cc3)c3ccc(N)c(Cl)c23)ccn1` [Compound 73, 2-(5-amino-4-chloro-1-(4-chlorobenzyl)-2-methyl-1H-indol-3-yl)-N-(2-methoxypyridin-4-yl)-2-oxoacetamide], for which, on FAAH, the IC50 lay in the range of 100 to 1000 nM. Still for that read-out and setting: next, `COc1cc(NC(=O)C(=O)c2c(C)n(Cc3ccc(Cl)cn3)c3ccc(N)cc23)ccn1` [Compound 65, 2-(5-amino-1-((5-chloropyridin-2-yl)methyl)-2-methyl-1H-indol-3-yl)-N-(2-methoxypyridin-4-yl)-2-oxoacetamide]: 100 to 1000 nM.

As to `CNCc1ccc2c(c1)c(C(=O)C(=O)Nc1ccnc(OC)c1)c(C)n2Cc1ccc(Cl)cc1` [Compound 25, 2-(1-(4-chlorobenzyl)-2-methyl-5-((methylamino)methyl)-1H-indol-3-yl)-N-(2-methoxypyridin-4-yl)-2-oxoacetamide], at FAAH, the half-inhibitory concentration (IC50) lay within 100 to 1000 nM. The same measure, in the same setting: as for `COc1ccc2c(c1)c(C(=O)C(=O)Nc1ccnc(OC)c1)c(C)n2Cc1ccc(S(C)(=O)=O)cc1` [Compound 39, 2-(5-methoxy-2-methyl-1-(4-(methylsulfonyl)benzyl)-1H-indol-3-yl)-N-(2-methoxypyridin-4-yl)-2-oxoacetamide], the figure is 1000 to 10000 nM; as for `COc1cc(NC(=O)C(=O)c2c(C)n(Cc3ccc(Cl)cc3)c3ccc(OC)c(Cl)c23)ccn1` [Compound 58, 2-(4-chloro-1-(4-chlorobenzyl)-5-methoxy-2-methyl-1H-indol-3-yl)-N-(2-methoxypyridin-4-yl)-2-oxoacetamide], below 100 nM.
